doi:10.1101/2023.11.24.568596v1 (biorxiv, 2023)
Values belong to the molecule of their own block, whether it stands above or below them.

Columns and labels:
Settings in all cases: binder
CaMK4 = biological target: T1, CaMK4 (Homo sapiens, UniProt Q16566)
T1 sequence (Q16566 1-473): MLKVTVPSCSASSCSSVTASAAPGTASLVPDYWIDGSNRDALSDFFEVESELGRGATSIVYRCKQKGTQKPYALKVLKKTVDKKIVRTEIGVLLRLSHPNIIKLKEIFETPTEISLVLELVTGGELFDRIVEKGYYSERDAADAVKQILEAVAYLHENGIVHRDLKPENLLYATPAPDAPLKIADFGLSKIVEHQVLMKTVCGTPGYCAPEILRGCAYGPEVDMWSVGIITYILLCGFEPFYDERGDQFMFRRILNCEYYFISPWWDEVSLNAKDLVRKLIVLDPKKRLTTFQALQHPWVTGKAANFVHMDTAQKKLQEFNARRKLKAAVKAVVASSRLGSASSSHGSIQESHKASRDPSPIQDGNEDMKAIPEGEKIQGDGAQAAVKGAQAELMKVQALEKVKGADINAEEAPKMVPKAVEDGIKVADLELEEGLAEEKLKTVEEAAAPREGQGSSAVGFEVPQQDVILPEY

MARK4 = biological target: T2, MARK4 (Homo sapiens, UniProt Q96L34)
T2 sequence (Q96L34 1-752): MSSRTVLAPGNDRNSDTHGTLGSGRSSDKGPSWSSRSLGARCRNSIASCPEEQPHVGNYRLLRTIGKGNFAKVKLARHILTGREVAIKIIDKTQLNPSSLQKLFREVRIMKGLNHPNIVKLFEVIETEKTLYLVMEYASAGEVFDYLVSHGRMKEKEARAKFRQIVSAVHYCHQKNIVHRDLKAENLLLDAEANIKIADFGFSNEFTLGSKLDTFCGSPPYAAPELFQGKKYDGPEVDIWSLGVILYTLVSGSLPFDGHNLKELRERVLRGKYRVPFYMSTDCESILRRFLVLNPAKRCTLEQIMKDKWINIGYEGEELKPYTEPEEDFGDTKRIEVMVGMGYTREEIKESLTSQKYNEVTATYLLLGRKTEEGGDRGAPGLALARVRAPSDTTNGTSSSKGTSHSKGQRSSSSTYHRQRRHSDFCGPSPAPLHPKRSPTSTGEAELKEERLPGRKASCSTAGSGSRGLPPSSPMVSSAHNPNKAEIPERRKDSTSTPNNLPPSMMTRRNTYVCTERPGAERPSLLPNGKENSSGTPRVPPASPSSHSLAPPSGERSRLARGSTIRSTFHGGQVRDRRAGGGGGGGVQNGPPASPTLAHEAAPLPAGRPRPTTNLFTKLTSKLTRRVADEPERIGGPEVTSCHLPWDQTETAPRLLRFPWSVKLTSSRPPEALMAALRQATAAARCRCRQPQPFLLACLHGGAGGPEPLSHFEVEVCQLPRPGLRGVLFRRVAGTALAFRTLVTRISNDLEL

NDR2 = NDR2 (Homo sapiens, UniProt Q9Y2H1)
Sequence of NDR2 (Q9Y2H1 whole entry): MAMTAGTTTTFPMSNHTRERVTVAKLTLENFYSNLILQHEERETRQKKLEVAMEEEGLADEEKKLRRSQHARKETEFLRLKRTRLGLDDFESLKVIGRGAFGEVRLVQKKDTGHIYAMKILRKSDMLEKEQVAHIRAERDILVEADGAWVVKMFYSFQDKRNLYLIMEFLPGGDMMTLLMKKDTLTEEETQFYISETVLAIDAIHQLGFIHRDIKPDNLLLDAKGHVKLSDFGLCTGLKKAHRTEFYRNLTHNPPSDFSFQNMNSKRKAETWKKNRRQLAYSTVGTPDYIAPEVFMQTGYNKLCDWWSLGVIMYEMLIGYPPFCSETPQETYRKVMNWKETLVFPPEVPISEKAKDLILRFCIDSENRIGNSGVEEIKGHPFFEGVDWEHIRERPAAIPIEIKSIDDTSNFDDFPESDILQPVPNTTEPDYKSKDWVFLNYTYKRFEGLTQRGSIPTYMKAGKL

NEK1 = biological target: T3, NEK1 (Homo sapiens, UniProt Q96PY6)
T3 sequence (Q96PY6 1-1258): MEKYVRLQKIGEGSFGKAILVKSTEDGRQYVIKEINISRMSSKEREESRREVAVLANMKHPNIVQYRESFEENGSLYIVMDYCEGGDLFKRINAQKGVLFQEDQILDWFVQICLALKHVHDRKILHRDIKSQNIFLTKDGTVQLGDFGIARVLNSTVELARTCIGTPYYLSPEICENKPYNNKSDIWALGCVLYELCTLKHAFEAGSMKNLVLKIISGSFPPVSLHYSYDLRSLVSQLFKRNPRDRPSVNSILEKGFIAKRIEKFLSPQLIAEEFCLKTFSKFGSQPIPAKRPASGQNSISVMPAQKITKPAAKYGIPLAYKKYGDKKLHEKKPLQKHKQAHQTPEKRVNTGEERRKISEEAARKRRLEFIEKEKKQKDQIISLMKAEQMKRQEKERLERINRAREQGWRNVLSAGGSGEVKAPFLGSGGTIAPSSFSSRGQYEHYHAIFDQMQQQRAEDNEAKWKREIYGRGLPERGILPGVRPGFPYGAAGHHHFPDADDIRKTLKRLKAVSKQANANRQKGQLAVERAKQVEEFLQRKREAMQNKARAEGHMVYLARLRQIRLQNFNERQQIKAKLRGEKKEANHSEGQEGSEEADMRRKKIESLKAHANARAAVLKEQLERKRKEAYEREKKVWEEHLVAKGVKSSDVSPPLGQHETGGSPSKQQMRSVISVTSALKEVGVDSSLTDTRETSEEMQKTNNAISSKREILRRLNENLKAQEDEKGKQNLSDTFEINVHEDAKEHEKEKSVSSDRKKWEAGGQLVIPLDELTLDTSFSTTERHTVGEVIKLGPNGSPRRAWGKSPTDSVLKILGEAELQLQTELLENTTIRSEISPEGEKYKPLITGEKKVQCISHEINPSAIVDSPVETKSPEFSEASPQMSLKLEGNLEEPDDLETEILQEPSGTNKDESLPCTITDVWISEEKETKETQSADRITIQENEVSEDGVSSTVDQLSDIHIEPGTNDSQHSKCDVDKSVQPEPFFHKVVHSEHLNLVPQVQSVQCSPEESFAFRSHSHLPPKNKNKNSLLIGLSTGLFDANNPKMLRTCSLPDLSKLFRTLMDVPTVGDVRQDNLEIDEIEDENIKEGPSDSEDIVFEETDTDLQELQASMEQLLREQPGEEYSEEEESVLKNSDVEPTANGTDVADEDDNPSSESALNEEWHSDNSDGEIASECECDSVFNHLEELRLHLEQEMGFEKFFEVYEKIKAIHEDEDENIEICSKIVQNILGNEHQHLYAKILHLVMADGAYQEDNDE

dTm 33 (CaMK4): 5.2 °C
dTm 33 (MARK4): 10.3 °C
dTm 33 (NDR2): 10.4 °C
dTm 33 (NEK1): -3.6 °C
Structure (SMILES): Cc1cccc(-c2ccc(-c3cc4cnc(Nc5ccc(F)c(CO)c5)nc4n(CCCCN)c3=O)c(Cl)c2)n1 [compound 33, 8-(4-Aminobutyl)-6-(2-chloro-4-(6-methylpyridin-2-yl)phenyl)-2-((4-fluoro-3-(hydroxymethyl)phenyl)amino)pyrido[2,3-d]pyrimidin-7(8H)-one]

dTm 34 (CaMK4): 3.9 °C
dTm 34 (MARK4): 4.6 °C
dTm 34 (NDR2): 6.0 °C
dTm 34 (NEK1): -1.0 °C
Structure (SMILES): COc1ccc(O)c(Nc2ncc3cc(-c4ccc(-c5cccc(C)n5)cc4Cl)c(=O)n(CCCCN)c3n2)c1 [compound 34, 8-(4-Aminobutyl)-6-(2-chloro-4-(6-methylpyridin-2-yl)phenyl)-2-((2-hydroxy-5-methoxy-phenyl)amino)pyrido[2,3-d]pyrimidin-7(8H)-one]

dTm 35 (CaMK4): 5.7 °C
dTm 35 (MARK4): 6.6 °C
dTm 35 (NDR2): 6.5 °C
dTm 35 (NEK1): -0.7 °C
Structure (SMILES): COc1cc(N2CCOCC2)ccc1Nc1ncc2cc(-c3ccc(-c4cccc(C)n4)cc3Cl)c(=O)n(CCCCN)c2n1 [compound 35, 8-(4-Aminobutyl)-6-(2-chloro-4-(6-methylpyridin-2-yl)phenyl)-2-((2-methoxy-4-morpholino-phenyl)amino)pyrido[2,3-d]pyrimidin-7(8H)-one]

dTm 36 (CaMK4): 3.2 °C
dTm 36 (MARK4): 7.4 °C
dTm 36 (NDR2): 5.2 °C
dTm 36 (NEK1): 0.0 °C
Structure (SMILES): COc1cc(N2CCN(C)CC2)ccc1Nc1ncc2cc(-c3ccc(-c4cccc(C)n4)cc3Cl)c(=O)n(CCCCN)c2n1 [compound 36, 8-(4-Aminobutyl)-6-(2-chloro-4-(6-methylpyridin-2-yl)phenyl)-2-((2-methoxy-4-(4-methylpiperazin-1-yl)phenyl)amino)pyrido[2,3-d]pyrimidin-7(8H)-one]
